Data set [1] has as its system U2OS cells with DR-GFP reporter. In words: Homologous recombination assay, U2OS cells with DR-GFP reporter. In kind it is cell-based. Particulars: 10 μM. Here is the method: Homologous recombination assay was measured in U2OS cells with DR-GFP reporter after treatment with 10 μM RI-1 and 10 μM B02. The representative of two independent experiments is presented.
HR assay was measured in U2OS cells with DR-GFP reporter after transduction with lentivirus encoding indicated shRNAs. The representative of three independent experiments is presented.

The subject of a further data set is RAD51 foci. In words: RAD51 foci formation by immunofluorescence in MMC-treated GM6914 cells. In kind it is cell-based. As to conditions: GM6914 (FA-A) or GM6914+FANCA cells, 1 μM MMC, 10 μM inhibitors, 6 h. How it is done:
GM6914 (FA-A) cells or corrected GM6914+FANCA cells were treated with 1 μMMMC and 10 μM inhibitors for 6 h before immunofluorescence analysis. Representative images (FIG. 3E) and quantification (FIG. 3F) of RAD51 foci are shown, (Scale bar: 50 μm).

The test system of the next data set is HSPCs. Put plainly: HSPC survival with RAD51 inhibitors (cytotoxicity). It counts as cell-based. Particulars: HSPCs from WT or Fancd2−/− mice, 10 μM, in vitro five days. How it is done: HSPCs from WT or Fancd2−/− mice were treated with B02 (10 μM) or RI-1 (10 μM) in vitro for five days and survival was determined.
The subject of a further data set is gamma H2AX foci. In words: pIpC stress in mice, gamma H2AX foci. Particulars: wild-type or Fancd2-deficient mice, pretreated in vivo. An excerpt: (§1) FIG. 6A is a schematic showing that wild-type or Fancd2-deficient mice were exposed to the physiologic stress, pIpC. Mice were pretreated in vivo with either no Tgfβ inhibitor, the neutralizing antibody to Tgfβ 1, 2, 3, or the Tgfβ receptor kinase inhibitor, Galunisertib. Long-term HSCs (LT-HSCs) were isolated and subjected to functional tests.

The next data set deals with LT-HSCs. In words: pIpC stress in mice, comet assay on LT-HSCs. As to conditions: wild-type or Fancd2-deficient mice, pretreated in vivo.
Source text: as §1

For another data set, the system named is TGFβ signaling. In words: Physiological stress (pIpC)-induced bone marrow failure in mice. Particulars: pretreated in vivo.
Source text: as §1

In data set [2] the test system is GM6914 cells (FA-A cells). In words: Traffic light reporter assay of HR and NHEJ repair events. Particulars: GM6914 cells exposed to SD-208 for 72 hrs. It counts as cell-based. An excerpt:
FIGS. 4A-4B are graphs showing that TGF-β pathway inhibition affects the choice of HR versus NHEJ pathways in repairing individual DNA breakpoints in FA cells. GM6914 cells (FA-A cells) or FANCA corrected GM6914 cells with shControl or shSMAD3 were used to generate traffic light reporter system, and then were infected with GFP-donor template and I-SceI lentivirus to generate DNA breakpoints. Quantification analysis of HR and NHEJ repair events is shown. (FIG. 4B) The ratio of HR to NHEJ activity based on the data in (FIG. 4A).
Quantification of HR and NHEJ repair events in GM6914 cells exposed to SD-208 for 72 hrs as detected by traffic light reporter assay described in FIG. 4A.
FIG. 5A is a schematic of traffic light reporter assay. Endonuclease 1-SceI induces double strand break (DSB) in the restriction site. […]
FIG. 5B is a graph showing HR and NHEJ repair analyzed by traffic light reporter (TLR) system. […] HR and NHEJ repair events (GFP or mCherry positive cells) were quantified by flow cytometry.
To directly confirm that inhibition of TGF-β pathway modulates HR or NHEJ activity, we engineered an individual DNA breakpoint in FA (GM6914) cells and employed the traffic light reporter […] system which quantifies both HR and NHEJ activities (Certo et al., 2011). […]
For orientation: Reporter assays use an easily measured gene product as a stand-in for the process of interest.

“Also recorded” adds a separate entry of the source.

The record followed here is patent publication US11421218B2, “Methods for enhancing the efficiency of gene editing” (Dana-Farber Cancer Institute, Inc., priority 2016, dated 2022).

As for `O=c1c2ccccc2nc(/C=C/c2cccnc2)n1Cc1ccccc1` [B02], in data set [1], the HR efficiency result was “significantly decrease HR efficiency”. In the data set with RAD51 foci, the RAD51 foci formation result was “efficiently block RAD51 foci formation”. The “cytotoxicity in HSPCs (survival)” value in the data set with HSPCs is listed as “do not show cytotoxicity in HSPCs”.
In the case of `Cc1cccc(-c2nn3c(c2-c2ccnc4ccc(C(N)=O)cc24)CCC3)n1` [Galunisertib, 4-[2-(6-methylpyridin-2-yl)-5,6-dihydro-4H-pyrrolo[1,2-b]pyrazol-3-yl]quinoline-6-carboxamide], the “pIpC-induced DNA damage, gamma H2AX foci” value in the data set on gamma H2AX foci is “rescued the pIpC-induced DNA damage”. Moreover, the “pIpC-induced DNA damage in LT-HSCs, comet assay” value in the data set with LT-HSCs was “rescued the pIpC-induced DNA damage”. Moreover, the “physiological stress-induced bone marrow failure” value in the data set on TGFβ signaling is given as “rescues physiological stress-induced bone marrow failure in mice”.
On to `O=C1C(Cl)=C(N2CCOCC2)C(=O)N1c1ccc(Cl)c(Cl)c1` [RI-1], for which the HR efficiency result in data set [1] is given as “significantly decrease HR efficiency”. Further, the RAD51 foci formation result in the data set on RAD51 foci was “efficiently block RAD51 foci formation”. Also, the “cytotoxicity in HSPCs (survival)” value in the data set on HSPCs is reported as “do not show cytotoxicity in HSPCs”.
As to `Fc1ccc(Cl)cc1-c1nc(Nc2ccncc2)c2nccnc2n1` [SD208, 2-(5-Chloro-2-fluorophenyl)-4-[(4-pyridyl)amino]pteridine], in data set [2], the HR repair events result is reported as “increased HR activity in FA cells; also recorded: increases FIR events” and the NHEJ repair events result is “decreases NHEJ events”.
